According to US20220251163A1 (Sinopep-Allsino Biopharmaceutical Co., Ltd., priority 2019, published 2022):
Like-named read-outs stand apart in the source and are kept apart here. Where a SMILES comes first, the peptide text is derived from it.

Legend:
mGIPR = molecular target: T1, mGIPR (Mus musculus, UniProt Q0P543); test: GIPR agonist activity, cAMP in transfected HEK293 cells; assay type: cell-based
T1 construct: expressed in transfected cells; host or cells: HEK293
T1 sequence (Q0P543 19-460): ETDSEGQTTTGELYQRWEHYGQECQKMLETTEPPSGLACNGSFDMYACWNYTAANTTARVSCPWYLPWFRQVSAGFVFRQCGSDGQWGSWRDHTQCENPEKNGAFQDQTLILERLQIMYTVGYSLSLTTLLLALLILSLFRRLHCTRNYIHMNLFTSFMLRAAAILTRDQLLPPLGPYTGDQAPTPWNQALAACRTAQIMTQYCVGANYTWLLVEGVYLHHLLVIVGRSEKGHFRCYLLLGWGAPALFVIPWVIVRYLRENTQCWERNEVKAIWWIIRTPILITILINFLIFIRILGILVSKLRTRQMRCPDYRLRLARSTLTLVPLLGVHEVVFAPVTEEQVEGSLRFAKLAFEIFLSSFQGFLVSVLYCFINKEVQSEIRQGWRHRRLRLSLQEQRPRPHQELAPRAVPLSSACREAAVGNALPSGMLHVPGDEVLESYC

mGLP-1R = molecular target: T2, mGLP-1R (Mus musculus, UniProt O35659); test: GLP-1R agonist activity, cAMP in transfected HEK293 cells; assay type: cell-based
T2 construct: expressed in transfected cells; host or cells: HEK293
T2 sequence (O35659 22-463): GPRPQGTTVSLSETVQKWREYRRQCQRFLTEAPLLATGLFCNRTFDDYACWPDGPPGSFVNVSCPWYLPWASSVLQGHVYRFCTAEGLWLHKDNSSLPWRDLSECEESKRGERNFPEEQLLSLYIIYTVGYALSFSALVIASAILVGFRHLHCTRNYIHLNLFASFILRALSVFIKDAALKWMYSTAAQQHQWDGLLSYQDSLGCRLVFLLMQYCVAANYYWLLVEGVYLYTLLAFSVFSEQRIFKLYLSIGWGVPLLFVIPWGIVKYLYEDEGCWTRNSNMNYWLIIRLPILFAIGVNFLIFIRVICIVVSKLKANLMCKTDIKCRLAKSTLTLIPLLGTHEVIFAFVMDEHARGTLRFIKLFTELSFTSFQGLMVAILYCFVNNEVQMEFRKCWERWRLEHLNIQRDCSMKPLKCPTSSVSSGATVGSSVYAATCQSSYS

[1] = HEK293 cells transfected with GIPR, cAMP, 20 min incubation, read-out: mGIPR EC50
[2] = HEK293 cells transfected with GLP-1R, cAMP, 20 min incubation, read-out: mGLP-1R EC50

CC[C@H](C)[C@H](NC(=O)[C@H](CC(C)C)NC(=O)[C@H](Cc1c[nH]c2ccccc12)NC(=O)[C@H](CCC(N)=O)NC(=O)[C@@H](NC(=O)[C@H](Cc1ccccc1)NC(=O)[C@H](C)NC(=O)[C@H](CCCCNC(=O)COCCOCCNC(=O)COCCOCCNC(=O)CC[C@H](NC(=O)CCCCCCCCCCCCCCCCC(=O)O)C(=O)O)NC(=O)[C@H](CCC(N)=O)NC(=O)[C@H](C)NC(=O)[C@@H](NC(=O)[C@H](CCCCN)NC(=O)[C@H](CC(=O)O)NC(=O)[C@H](CC(C)C)NC(=O)C(C)(C)NC(=O)[C@@H](NC(=O)[C@H](CO)NC(=O)[C@H](Cc1ccc(O)cc1)NC(=O)[C@H](CC(=O)O)NC(=O)[C@H](CO)NC(=O)[C@@H](NC(=O)[C@H](Cc1ccccc1)NC(=O)[C@@H](NC(=O)CNC(=O)[C@H](CCC(=O)O)NC(=O)C1(NC(=O)[C@@H](N)Cc2ccc(O)cc2)CCCC1)[C@@H](C)O)[C@@H](C)O)[C@@H](C)CC)[C@@H](C)CC)C(C)C)C(=O)N[C@@H](C)C(=O)NCC(=O)NCC(=O)N1CCC[C@H]1C(=O)N[C@@H](CO)C(=O)N[C@@H](CO)C(=O)NCC(=O)N[C@@H](C)C(=O)N1CCC[C@H]1C(=O)N1CCC[C@H]1C(=O)N1CCC[C@H]1C(=O)N[C@@H](CO)C(N)=O [ID NO: 9]
EC50 (mGIPR): 0.00698 nM | EC50 (mGLP-1R): 0.00941 nM

CC[C@H](C)[C@H](NC(=O)[C@H](CC(C)C)NC(=O)[C@H](Cc1c[nH]c2ccccc12)NC(=O)[C@H](CCC(N)=O)NC(=O)[C@@H](NC(=O)[C@H](Cc1ccccc1)NC(=O)[C@H](C)NC(=O)[C@H](CCCCNC(=O)COCCOCCNC(=O)COCCOCCNC(=O)CC[C@H](NC(=O)CCCCCCCCCCCCCCCCC(=O)O)C(=O)O)NC(=O)[C@H](CCC(N)=O)NC(=O)[C@H](C)NC(=O)[C@@H](NC(=O)[C@H](CCCCN)NC(=O)[C@H](CC(=O)O)NC(=O)[C@H](CC(C)C)NC(=O)C1(NC(=O)[C@@H](NC(=O)[C@H](CO)NC(=O)[C@H](Cc2ccc(O)cc2)NC(=O)[C@H](CC(=O)O)NC(=O)[C@H](CO)NC(=O)[C@@H](NC(=O)[C@H](Cc2ccccc2)NC(=O)[C@@H](NC(=O)CNC(=O)[C@H](CCC(=O)O)NC(=O)C(C)(C)NC(=O)[C@@H](N)Cc2ccc(O)cc2)[C@@H](C)O)[C@@H](C)O)[C@@H](C)CC)CCCC1)[C@@H](C)CC)C(C)C)C(=O)N[C@@H](C)C(=O)NCC(=O)NCC(=O)N1CCC[C@H]1C(=O)N[C@@H](CO)C(=O)N[C@@H](CO)C(=O)NCC(=O)N[C@@H](C)C(=O)N1CCC[C@H]1C(=O)N1CCC[C@H]1C(=O)N1CCC[C@H]1C(=O)N[C@@H](CO)C(N)=O [ID NO: 10]
EC50 (mGIPR; [1]): 0.00811 nM | EC50 (mGLP-1R; [2]): 0.00889 nM

CCCCCCCCCCCCCCCC(=O)N[C@@H](CCC(=O)NCCCC[C@H](NC(=O)[C@H](CCC(N)=O)NC(=O)[C@H](C)NC(=O)[C@@H](NC(=O)[C@H](CCCCN)NC(=O)[C@H](CC(=O)O)NC(=O)[C@H](CC(C)C)NC(=O)C(C)(C)NC(=O)[C@@H](NC(=O)[C@H](CO)NC(=O)[C@H](Cc1ccc(O)cc1)NC(=O)[C@H](CC(=O)O)NC(=O)[C@H](CO)NC(=O)[C@@H](NC(=O)[C@H](Cc1ccccc1)NC(=O)[C@@H](NC(=O)CNC(=O)[C@H](CCC(=O)O)NC(=O)C(C)(C)NC(=O)[C@@H](N)Cc1ccc(O)cc1)[C@@H](C)O)[C@@H](C)O)[C@@H](C)CC)[C@@H](C)CC)C(=O)N[C@@H](C)C(=O)N[C@@H](Cc1ccccc1)C(=O)N[C@H](C(=O)N[C@@H](CCC(N)=O)C(=O)N[C@@H](Cc1c[nH]c2ccccc12)C(=O)N[C@@H](CC(C)C)C(=O)N[C@H](C(=O)N[C@@H](C)C(=O)NCC(=O)NCC(=O)N1CCC[C@H]1C(=O)N[C@@H](CO)C(=O)N[C@@H](CO)C(=O)NCC(=O)N[C@@H](C)C(=O)N1CCC[C@H]1C(=O)N1CCC[C@H]1C(=O)N1CCC[C@H]1C(=O)N[C@@H](CO)C(N)=O)[C@@H](C)CC)C(C)C)C(=O)O [ID NO: 11]
EC50 (mGIPR; [1]): 0.00632 nM | EC50 (mGLP-1R; [2]): 0.0243 nM

CCCCCCCCCCCCCCCC(=O)N[C@@H](CCC(=O)NCCCC[C@H](NC(=O)[C@H](CCC(N)=O)NC(=O)[C@H](C)NC(=O)[C@@H](NC(=O)[C@H](CCCCN)NC(=O)[C@H](CC(=O)O)NC(=O)[C@H](CC(C)C)NC(=O)[C@@H](NC(=O)[C@@H](NC(=O)[C@H](CO)NC(=O)[C@H](Cc1ccc(O)cc1)NC(=O)[C@H](CC(=O)O)NC(=O)[C@H](CO)NC(=O)[C@@H](NC(=O)[C@H](Cc1ccccc1)NC(=O)[C@@H](NC(=O)CNC(=O)[C@H](CCC(=O)O)NC(=O)[C@@H](NC(=O)[C@@H](N)Cc1ccc(O)cc1)C(C)C)[C@@H](C)O)[C@@H](C)O)[C@@H](C)CC)C(C)C)[C@@H](C)CC)C(=O)N[C@@H](C)C(=O)N[C@@H](Cc1ccccc1)C(=O)N[C@H](C(=O)N[C@@H](CCC(N)=O)C(=O)N[C@@H](Cc1c[nH]c2ccccc12)C(=O)N[C@@H](CC(C)C)C(=O)N[C@H](C(=O)N[C@@H](C)C(=O)NCC(=O)NCC(=O)N1CCC[C@H]1C(=O)N[C@@H](CO)C(=O)N[C@@H](CO)C(=O)NCC(=O)N[C@@H](C)C(=O)N1CCC[C@H]1C(=O)N1CCC[C@H]1C(=O)N1CCC[C@H]1C(=O)N[C@@H](CO)C(N)=O)[C@@H](C)CC)C(C)C)C(=O)O [ID NO: 12] (HELM PEPTIDE1{Y.V.E.G.T.F.T.S.D.Y.S.I.V.L.D.K.I.A.Q.K.A.F.V.Q.W.L.I.A.G.G.P.S.S.G.A.P.P.P.S.[am]}|PEPTIDE2{[CCCCCCCCCCCCCCCC(=O)[*:2]].[gGlu]}$PEPTIDE1,PEPTIDE2,20:R3-2:R2$$$V2.0)
EC50 (mGIPR; [1]): 0.00879 nM | EC50 (mGLP-1R; [2]): 0.0561 nM

CCCCCCCCCCCCCCCC(=O)N[C@@H](CCC(=O)NCCCC[C@H](NC(=O)[C@H](CCC(N)=O)NC(=O)[C@H](C)NC(=O)[C@@H](NC(=O)[C@H](CCCCN)NC(=O)[C@H](CC(=O)O)NC(=O)[C@H](CC(C)C)NC(=O)C1(NC(=O)[C@@H](NC(=O)[C@H](CO)NC(=O)[C@H](Cc2ccc(O)cc2)NC(=O)[C@H](CC(=O)O)NC(=O)[C@H](CO)NC(=O)[C@@H](NC(=O)[C@H](Cc2ccccc2)NC(=O)[C@@H](NC(=O)CNC(=O)[C@H](CCC(=O)O)NC(=O)C2(NC(=O)[C@@H](N)Cc3ccc(O)cc3)CCCC2)[C@@H](C)O)[C@@H](C)O)[C@@H](C)CC)CCCC1)[C@@H](C)CC)C(=O)N[C@@H](C)C(=O)N[C@@H](Cc1ccccc1)C(=O)N[C@H](C(=O)N[C@@H](CCC(N)=O)C(=O)N[C@@H](Cc1c[nH]c2ccccc12)C(=O)N[C@@H](CC(C)C)C(=O)N[C@H](C(=O)N[C@@H](C)C(=O)NCC(=O)NCC(=O)N1CCC[C@H]1C(=O)N[C@@H](CO)C(=O)N[C@@H](CO)C(=O)NCC(=O)N[C@@H](C)C(=O)N1CCC[C@H]1C(=O)N1CCC[C@H]1C(=O)N1CCC[C@H]1C(=O)N[C@@H](CO)C(N)=O)[C@@H](C)CC)C(C)C)C(=O)O [ID NO: 14]
EC50 (mGIPR; [1]): 0.0517 nM | EC50 (mGLP-1R; [2]): 0.0311 nM

CCCCCCCCCCCCCCCC(=O)N[C@@H](CCC(=O)NCCCC[C@H](NC(=O)[C@H](CCC(N)=O)NC(=O)[C@H](C)NC(=O)[C@@H](NC(=O)[C@H](CCCCN)NC(=O)[C@H](CC(=O)O)NC(=O)[C@H](CC(C)C)NC(=O)[C@H](C)NC(=O)[C@@H](NC(=O)[C@H](CO)NC(=O)[C@H](Cc1ccc(O)cc1)NC(=O)[C@H](CC(=O)O)NC(=O)[C@H](CO)NC(=O)[C@@H](NC(=O)[C@H](Cc1ccccc1)NC(=O)[C@@H](NC(=O)CNC(=O)[C@H](CCC(=O)O)NC(=O)[C@H](C)NC(=O)[C@@H](N)Cc1ccc(O)cc1)[C@@H](C)O)[C@@H](C)O)[C@@H](C)CC)[C@@H](C)CC)C(=O)N[C@@H](C)C(=O)N[C@@H](Cc1ccccc1)C(=O)N[C@H](C(=O)N[C@@H](CCC(N)=O)C(=O)N[C@@H](Cc1c[nH]c2ccccc12)C(=O)N[C@@H](CC(C)C)C(=O)N[C@H](C(=O)N[C@@H](C)C(=O)NCC(=O)NCC(=O)N1CCC[C@H]1C(=O)N[C@@H](CO)C(=O)N[C@@H](CO)C(=O)NCC(=O)N[C@@H](C)C(=O)N1CCC[C@H]1C(=O)N1CCC[C@H]1C(=O)N1CCC[C@H]1C(=O)N[C@@H](CO)C(N)=O)[C@@H](C)CC)C(C)C)C(=O)O [ID NO: 15]
EC50 (mGIPR; [1]): 0.0532 nM | EC50 (mGLP-1R; [2]): 0.0429 nM
